Target: GST tagged truncated human mutant G2019S LRRK2 (Homo sapiens (Human), UniProt Q5S007, G2019S)
Experiment: LRRK2 Km ATP LanthaScreen Assay
Assay type: biochemical
Settings: G2019S LRRK2, 134 μM ATP (Km ATP), mean values; for IC50: read-out: LRRK2 pIC50 (converted)
Protocol: General Experimental Information: • Unless otherwise noted, all reactions are magnetically stirred. Unless otherwise noted, when diethyl ether is used in the experiments described below, it is Fisher ACS certified material and is stabilized with BHT. Unless otherwise noted, “concentrated” and/or “solvent removed under reduced pressure” means evaporating the solvent from a solution or mixture using a rotary evaporator or vacuum pump. Unless otherwise noted, flash chromatography is carried out on a Teledyne Isco (Lincoln, NE), Analogix (Burlington, WI), or Biotage (Stockholm, SWE) automated chromatography system using a commercially available cartridge as the column. Columns may be purchased from Teledyne Isco, Analogix, Biotage, Varian (Palo Alto, CA), or Supelco (Bellefonte, PA) and are usually filled with silica gel as the stationary phase. Reverse phase prep-HPLC conditions, where used, can be found at the end of each experimental section. Aqueous solutions were concentrated on a Genevac (Ipswich, ENG) or by freeze-drying/lyophilization. Unless otherwise noted, all LRRK2 pIC50 data presented in tables refers to the LRRK2 G2019S Km ATP LanthaScreen™ assay (Life Technologies Corp., Carlsbad, CA) that is described in the Biological Assay section.
The pIC50 values reported herein were measured as follows.
Biological Assay: LRRK2 Km ATP LanthaScreen™ Assay
Compound potency against LRRK2 kinase activity was determined using LanthaScreen™ technology from Life Technologies Corporation (Carlsbad, CA) using a GST20 tagged truncated human mutant G2019S LRRK2 in the presence of the fluorescein-labeled peptide substrate LRRKtide® (LRRK2 phosphorylated ezrin/radixin/moesin (ERM)), also from Life Technologies. The data presented for the Km ATP LanthaScreen™ Assay represents mean IC50 values based on several test results and may have reasonable deviations depending on the specific conditions and reagents used. Km is the Michaelis constant of an enzyme and is defined as the concentration of native substrate (ATP for a kinase) which permits the enzyme to achieve half Vmax (Vmax=rate of reaction when the enzyme is saturated with substrate). IC50 (half-maximal inhibitory concentration) represents the concentration of inhibitor required to inhibit LRRK2 kinase activity by 50%. Assays were performed in the presence of 134 μM ATP (Km ATP). Upon completion, the assay was stopped, and phosphorylated substrate detected with a terbium (Tb)-labeled anti-pERM antibody (cat. no. PV4898). The compound dose response was prepared by diluting a 10 mM stock of compound to a maximum concentration of 9.99 μM in 100% DMSO, followed by custom fold serial dilution in DMSO nine times. 20 nL of each dilution was spotted via a Labcyte Echo onto a 384-well black-sided plate (Corning 3575) followed by 15 μl of a 1.25 nM enzyme solution in 1× assay buffer (50 mM Tris pH 8.5, 10 mM MgCl2, 0.01% Brij-35, 1 mM EGTA, 2 mM dithiothreitol, 0.05 mM sodium orthovanadate). Following a 15-minute incubation period at RT, the kinase reaction was started with the addition of 5 μl of 400 nM fluorescein-labeled LRRKtide® (LRRK2 phosphorylated ezrin/radixin/moesin (ERM)) peptide substrate and 134 μM ATP solution in 1× assay buffer. The reaction was allowed to progress at ambient temperature for 90 minutes. The reaction was then stopped by the addition of 20 μl of TR-FRET Dilution Buffer (Life Technologies, Carlsbad, CA) containing 2 nM Tb-labeled anti-phospho LRRKtide® (LRRK2 phosphorylated ezrin/radixin/moesin (ERM)) antibody and 10 mM EDTA (Life Technologies, Carlsbad, CA). After an incubation period of 1 h at RT, the plate was read on an EnVision® multimode plate reader (Perkin Elmer, Waltham, MA) with an excitation wavelength of 337 nm (Laser) and a reading emission at both 520 and 495 nm. Compound IC50 values were interpolated from nonlinear regression best-fits of the log of the final compound concentration, plotted as a function of the 520/495-nm emission ratio using activity base “Abase”). […]

GST tagged truncated human mutant G2019S LRRK2, sequence (Q5S007 970-2527 G2019S): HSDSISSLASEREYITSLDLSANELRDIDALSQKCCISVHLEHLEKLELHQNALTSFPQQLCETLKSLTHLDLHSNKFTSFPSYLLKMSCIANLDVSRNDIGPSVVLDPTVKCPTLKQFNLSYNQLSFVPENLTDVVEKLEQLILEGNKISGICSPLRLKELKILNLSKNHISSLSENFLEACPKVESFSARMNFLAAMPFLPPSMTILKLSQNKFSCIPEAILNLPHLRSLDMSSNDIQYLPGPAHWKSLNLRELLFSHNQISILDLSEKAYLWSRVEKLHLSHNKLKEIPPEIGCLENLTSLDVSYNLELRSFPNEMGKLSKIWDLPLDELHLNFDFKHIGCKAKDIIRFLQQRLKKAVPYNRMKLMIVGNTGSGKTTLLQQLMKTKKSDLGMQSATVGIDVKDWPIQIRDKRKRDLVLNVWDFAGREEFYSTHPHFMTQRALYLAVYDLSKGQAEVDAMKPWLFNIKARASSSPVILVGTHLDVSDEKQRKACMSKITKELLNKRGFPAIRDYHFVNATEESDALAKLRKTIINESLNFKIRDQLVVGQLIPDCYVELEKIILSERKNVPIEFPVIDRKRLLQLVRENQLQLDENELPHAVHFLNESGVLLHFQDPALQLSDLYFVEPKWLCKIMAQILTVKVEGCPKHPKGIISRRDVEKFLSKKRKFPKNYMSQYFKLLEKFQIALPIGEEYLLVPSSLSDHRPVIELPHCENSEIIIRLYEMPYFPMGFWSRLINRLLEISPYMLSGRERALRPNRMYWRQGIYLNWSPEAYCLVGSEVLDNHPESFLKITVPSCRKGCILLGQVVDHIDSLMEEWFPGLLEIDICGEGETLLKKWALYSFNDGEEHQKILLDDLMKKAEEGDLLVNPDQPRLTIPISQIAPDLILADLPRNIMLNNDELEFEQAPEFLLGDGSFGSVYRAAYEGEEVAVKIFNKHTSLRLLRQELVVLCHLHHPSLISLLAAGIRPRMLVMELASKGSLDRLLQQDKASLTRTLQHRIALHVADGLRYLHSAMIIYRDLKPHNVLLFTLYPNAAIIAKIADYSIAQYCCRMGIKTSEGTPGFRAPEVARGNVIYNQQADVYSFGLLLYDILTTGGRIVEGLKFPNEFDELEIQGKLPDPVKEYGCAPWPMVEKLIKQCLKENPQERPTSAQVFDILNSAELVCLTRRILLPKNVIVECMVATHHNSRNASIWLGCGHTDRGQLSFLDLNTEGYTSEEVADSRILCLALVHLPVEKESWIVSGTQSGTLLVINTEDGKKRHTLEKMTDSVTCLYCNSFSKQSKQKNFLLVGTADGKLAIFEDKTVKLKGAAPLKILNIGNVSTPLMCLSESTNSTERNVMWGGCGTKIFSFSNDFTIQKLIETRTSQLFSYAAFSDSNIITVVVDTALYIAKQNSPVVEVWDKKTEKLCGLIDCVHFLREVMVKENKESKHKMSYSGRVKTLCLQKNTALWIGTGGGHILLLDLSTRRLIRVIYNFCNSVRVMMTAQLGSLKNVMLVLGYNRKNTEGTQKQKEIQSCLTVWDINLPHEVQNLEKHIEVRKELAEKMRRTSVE

| SMILES | IC50 [µM] | LRRK2 pIC50 |
| --- | --- | --- |
| O=S1(=O)CCC(N2CCC(c3cc4nc(Nc5cnn(CC(F)F)c5Cl)ncc4cc3Cl)CC2)C1 (racemic) [Ex-4.6, (S) and (R) 3-(4-(6-chloro-2-((5-chloro-1-(2,2-difluoroethyl)-1H-pyrazol-4-yl)amino)quinazolin-7-yl)piperidin-1-yl)tetrahydrothiophene 1,1-dioxide] | < 0.000631 | – |
| O=S1(=O)CC(N2CC[C@@H](c3cc4nc(Nc5cnn(C6CC6)c5Cl)ncc4cc3Cl)[C@H](F)C2)C1 (single isomer, unassigned) | – | 8.52 |
| O=S1(=O)CC(N2CC[C@H](c3cc4nc(Nc5cnn(C6CC6)c5Cl)ncc4cc3Cl)[C@@H](F)C2)C1 (single isomer, unassigned) | – | 9.02 |
| CCn1ncc(Nc2ncc3cc(Cl)c(C4CC45CC5)cc3n2)c1C (single isomer, unassigned) [Ex-1.1, (S) or (R) 6-chloro-N-(1-ethyl-5-methyl-1H-pyrazol-4-yl)-7-(spiro[2.2]pentan-1-yl)quinazolin-2-amine] | 0.0117 | – |
| CCn1ncc(Nc2ncc3cc(Cl)c(C4CC45CC5)cc3n2)c1C (single isomer, unassigned) [Ex-1.2, (S) or (R) 6-chloro-N-(1-ethyl-5-methyl-1H-pyrazol-4-yl)-7-(spiro[2.2]pentan-1-yl)quinazolin-2-amine] | 0.186 | – |
| CC(C)(O)CN1CCC(c2cc3nc(Nc4cnn(C5CC5)c4)ncc3cc2Cl)C1 (single isomer, unassigned) [Ex-1.4, (S) or (R) 1-(3-(6-chloro-2-((1-cyclopropyl-1H-pyrazol-4-yl)amino)quinazolin-7-yl)pyrrolidin-1-yl)-2-methylpropan-2-ol] | 0.024 | – |
| Cc1c(Nc2ncc3cc(Cl)c(C4CCN(C5CC[C@H]5O)CC4)cc3n2)cnn1C1CC1 (single isomer, unassigned) [Ex-1.5, (1R,2S) or (1R,2R) or (1S,2S) or (1S,2R) 2-(4-(6-chloro-2-((1-cyclopropyl-5-methyl-1H-pyrazol-4-yl)amino)quinazolin-7-yl)piperidin-1-yl)cyclobutan-1-ol] | – | >9.20 |
| Cc1c(Nc2ncc3cc(Cl)c(C4CCN(C5CC[C@@H]5O)CC4)cc3n2)cnn1C1CC1 (single isomer, unassigned) [Ex-1.6, (1R,2S) or (1R,2R) or (1S,2S) or (1S,2R) 2-(4-(6-chloro-2-((1-cyclopropyl-5-methyl-1H-pyrazol-4-yl)amino)quinazolin-7-yl)piperidin-1-yl)cyclobutan-1-ol] | – | >9.20 |
| C[C@@]1(N2CCC(c3cc4nc(Nc5cnn(C6CC6)c5Cl)ncc4cc3Cl)CC2)COC[C@@H]1O (single isomer, unassigned) [Ex-1.7, (3R,4R)- or (3S,4S)-4-(4-(6-chloro-2-((5-chloro-1-cyclopropyl-1H-pyrazol-4-yl)amino)quinazolin-7-yl)piperidin-1-yl)-4-methyltetrahydrofuran-3-ol] | – | >9.20 |
| C[C@@]1(N2CCC(c3cc4nc(Nc5cnn(C6CC6)c5Cl)ncc4cc3Cl)CC2)COC[C@@H]1O (single isomer, unassigned) [Ex-1.8, (3R,4R)- or (3S,4S)-4-(4-(6-chloro-2-((5-chloro-1-cyclopropyl-1H-pyrazol-4-yl)amino)quinazolin-7-yl)piperidin-1-yl)-4-methyltetrahydrofuran-3-ol] | 0.00155 | – |
| CC(C)(O)CN1CCC(c2cc3nc(Nc4cnn(C5CC5)c4)ncc3cc2Cl)C1 (single isomer, unassigned) [Ex-1.9, (S) or (R) 1-(3-{6-chloro-2-[(1-cyclopropyl-1H-pyrazol-4-yl)amino]quinazolin-7-yl}pyrrolidin-1-yl)-2-methylpropan-2-ol] | 0.0302 | – |
| CC(C)(O)CN1CCC(c2cc3nc(Nc4cnn(C5CC5)c4)ncc3cc2Cl)C1 (single isomer, unassigned) [Ex-1.10, (S) or (R) 1-(3-{6-chloro-2-[(1-cyclopropyl-1H-pyrazol-4-yl)amino]quinazolin-7-yl}pyrrolidin-1-yl)-2-methylpropan-2-ol] | 0.0282 | – |
